The values that follow come from patent US12643871B2, “Aryl formamide compound containing chiral sulfur oxide or salt thereof, preparation method, herbicidal composition and use thereof” (Qingdao Kingagroot Chemical Compound Co., Ltd., priority 2019, dated 2026).

Holding throughout (test): Weeding effect in post-emergence stage
Assay type in all cases: in vivo
Holding throughout (conditions): 250 g/ha; 2 leaf stage; 15 days after application; fresh weight control rate

The test system of one test is Abutilon theophrasti. Summed up: (§1)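 Greenhouse pot-grown weeds were sprayed at the 2-leaf stage, 2 weeks after sowing, with compound in acetone/Tween 80 plus 1.5 L/ha methyl oleate EC, at 500, 250, 125, 60, 30 or 15 g/ha. Fresh-weight growth control was scored 15 days later on a 0–5 scale, mean of three repeats.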
Another test has as its system Amaranthus retroflexus. The essentials: as §1
In a further test the test system is Digitaria sanguinalis. Summed up:
as §1

Another test deals with Echinochloa crusgali. Summed up:
as §1

The test system of a further test is Setaria viridis. The essentials:
as §1

Turning to `CSc1c(C(=O)Nc2nnc(C)o2)ccc(C(F)(F)F)c1[S@+]([O-])CC(C)C` [Compound 551], the “weeding effect in post-emergence stage, activity level (growth control rate), Abutilon theophrasti” value (from here on “weeding effect … Abutilon theophrasti”) in the test on Abutilon theophrasti was 5 (Level 5: growth control rate is above 85%). For the same molecule, the “weeding effect in post-emergence stage, activity level (growth control rate), Amaranthus retroflexus” value (“weeding effect … Amaranthus retroflexus” below) with Amaranthus retroflexus is listed as 5 (Level 5: growth control rate is above 85%). Further, the “weeding effect in post-emergence stage, activity level (growth control rate), Digitaria sanguinalis” value (“weeding effect … Digitaria sanguinalis” for short) with Digitaria sanguinalis is listed as 5 (Level 5: growth control rate is above 85%). In addition, the “weeding effect in post-emergence stage, activity level (growth control rate), Echinochloa crusgali” value (“weeding effect … Echinochloa crusgali” for short) with Echinochloa crusgali is 5 (Level 5: growth control rate is above 85%). In addition, in the test with Setaria viridis, the “weeding effect in post-emergence stage, activity level (growth control rate), Setaria viridis” value (“weeding effect … Setaria viridis” below) is 5 (Level 5: growth control rate is above 85%).
Turning to `CCC[S@@+]([O-])c1c(C(F)(F)F)ccc(C(=O)Nc2nnc(C)o2)c1OC` [Compound 531], the “weeding effect … Abutilon theophrasti” value in the test on Abutilon theophrasti is reported as 5 (Level 5: growth control rate is above 85%). Further, the “weeding effect … Amaranthus retroflexus” value with Amaranthus retroflexus was 5 (Level 5: growth control rate is above 85%). The “weeding effect … Digitaria sanguinalis” value in the test on Digitaria sanguinalis is 5 (Level 5: growth control rate is above 85%). For the same molecule, the “weeding effect … Echinochloa crusgali” value in the test on Echinochloa crusgali is given as 5 (Level 5: growth control rate is above 85%). Also, the “weeding effect … Setaria viridis” value in the test on Setaria viridis is reported as 5 (Level 5: growth control rate is above 85%).
On to `Cc1nnc(NC(=O)c2ccc(C(F)(F)F)c([S@+]([O-])CCCN)c2F)o1` [Compound 57], for which the “weeding effect … Abutilon theophrasti” value with Abutilon theophrasti is on record as 5 (Level 5: growth control rate is above 85%). Besides, in the test on Amaranthus retroflexus, the “weeding effect … Amaranthus retroflexus” value was 5 (Level 5: growth control rate is above 85%). Also, the “weeding effect … Digitaria sanguinalis” value in the test on Digitaria sanguinalis is 5 (Level 5: growth control rate is above 85%). Also, the “weeding effect … Echinochloa crusgali” value in the test on Echinochloa crusgali is reported as 5 (Level 5: growth control rate is above 85%). In addition, in the test with Setaria viridis, the “weeding effect … Setaria viridis” value is 5 (Level 5: growth control rate is above 85%).
As to `CC=CC[S+]([O-])c1c(C(F)(F)F)ccc(C(=O)Nc2nnc(C)o2)c1F` (stereo not shown) [Compound 21], the “weeding effect … Abutilon theophrasti” value with Abutilon theophrasti is reported as 5 (Level 5: growth control rate is above 85%). For the same molecule, the “weeding effect … Amaranthus retroflexus” value with Amaranthus retroflexus is given as 5 (Level 5: growth control rate is above 85%). Further, the “weeding effect … Digitaria sanguinalis” value in the test on Digitaria sanguinalis is 5 (Level 5: growth control rate is above 85%). Moreover, in the test with Echinochloa crusgali, the “weeding effect … Echinochloa crusgali” value is reported as 5 (Level 5: growth control rate is above 85%). Moreover, the “weeding effect … Setaria viridis” value in the test on Setaria viridis was 5 (Level 5: growth control rate is above 85%).
Turning to `CCC[S@@+]([O-])c1c(C(F)(F)F)ccc(C(=O)Nc2nnc(CC)o2)c1F` [Compound 358], the “weeding effect … Abutilon theophrasti” value with Abutilon theophrasti is 5 (Level 5: growth control rate is above 85%). Moreover, the “weeding effect … Amaranthus retroflexus” value in the test with Amaranthus retroflexus is given as 5 (Level 5: growth control rate is above 85%). Moreover, the “weeding effect … Digitaria sanguinalis” value in the test on Digitaria sanguinalis was 5 (Level 5: growth control rate is above 85%). The “weeding effect … Echinochloa crusgali” value in the test on Echinochloa crusgali is given as 5 (Level 5: growth control rate is above 85%). Moreover, in the test on Setaria viridis, the “weeding effect … Setaria viridis” value is reported as 5 (Level 5: growth control rate is above 85%).
As to `Cc1nnc(NC(=O)c2ccc(C(F)(F)F)c([S@+]([O-])CC(C)O)c2F)o1` (stereo partly shown) [Compound 56], in the test with Abutilon theophrasti, the “weeding effect … Abutilon theophrasti” value was 5 (Level 5: growth control rate is above 85%). The “weeding effect … Amaranthus retroflexus” value with Amaranthus retroflexus was 5 (Level 5: growth control rate is above 85%). For the same molecule, in the test on Digitaria sanguinalis, the “weeding effect … Digitaria sanguinalis” value is listed as 5 (Level 5: growth control rate is above 85%). Moreover, the “weeding effect … Echinochloa crusgali” value in the test with Echinochloa crusgali is 5 (Level 5: growth control rate is above 85%). Further, the “weeding effect … Setaria viridis” value in the test on Setaria viridis was 5 (Level 5: growth control rate is above 85%).
For `COc1c(C(=O)Nc2nnc(C)o2)ccc(C(F)(F)F)c1[S+]([O-])COCc1ccccc1` (stereo not shown) [Compound 347], the “weeding effect … Abutilon theophrasti” value with Abutilon theophrasti is reported as 5 (Level 5: growth control rate is above 85%). The “weeding effect … Amaranthus retroflexus” value in the test on Amaranthus retroflexus is 5 (Level 5: growth control rate is above 85%). Further, the “weeding effect … Digitaria sanguinalis” value with Digitaria sanguinalis was 5 (Level 5: growth control rate is above 85%). For the same molecule, the “weeding effect … Echinochloa crusgali” value in the test with Echinochloa crusgali is on record as 5 (Level 5: growth control rate is above 85%). The “weeding effect … Setaria viridis” value in the test on Setaria viridis is on record as 5 (Level 5: growth control rate is above 85%).
As to `CSc1c(C(=O)Nc2nnc(C)o2)ccc(C(F)(F)F)c1[S@+]([O-])CC(F)F` [Compound 558], the “weeding effect … Abutilon theophrasti” value with Abutilon theophrasti is 5 (Level 5: growth control rate is above 85%). For the same molecule, in the test with Amaranthus retroflexus, the “weeding effect … Amaranthus retroflexus” value is listed as 5 (Level 5: growth control rate is above 85%). The “weeding effect … Digitaria sanguinalis” value in the test with Digitaria sanguinalis is 5 (Level 5: growth control rate is above 85%). In addition, in the test on Echinochloa crusgali, the “weeding effect … Echinochloa crusgali” value is recorded as 5 (Level 5: growth control rate is above 85%). The “weeding effect … Setaria viridis” value in the test on Setaria viridis is 5 (Level 5: growth control rate is above 85%).
On to `CSc1c(C(=O)Nc2nnc(C)o2)ccc(C(F)(F)F)c1[S@+]([O-])CCC(F)(F)F` [Compound 560], for which the “weeding effect … Abutilon theophrasti” value in the test with Abutilon theophrasti was 5 (Level 5: growth control rate is above 85%). The “weeding effect … Amaranthus retroflexus” value in the test on Amaranthus retroflexus is 5 (Level 5: growth control rate is above 85%). The “weeding effect … Digitaria sanguinalis” value in the test with Digitaria sanguinalis is on record as 5 (Level 5: growth control rate is above 85%). Moreover, the “weeding effect … Echinochloa crusgali” value in the test with Echinochloa crusgali is 5 (Level 5: growth control rate is above 85%). In the test with Setaria viridis, the “weeding effect … Setaria viridis” value was 5 (Level 5: growth control rate is above 85%).
Take `Cc1nnc(NC(=O)c2ccc(C(F)(F)F)c([S@+]([O-])CCCC#N)c2F)o1` [Compound 53]: the “weeding effect … Abutilon theophrasti” value in the test on Abutilon theophrasti is 5 (Level 5: growth control rate is above 85%). Besides, in the test with Amaranthus retroflexus, the “weeding effect … Amaranthus retroflexus” value is reported as 5 (Level 5: growth control rate is above 85%). Moreover, the “weeding effect … Digitaria sanguinalis” value in the test with Digitaria sanguinalis is reported as 5 (Level 5: growth control rate is above 85%). The “weeding effect … Echinochloa crusgali” value in the test with Echinochloa crusgali is listed as 5 (Level 5: growth control rate is above 85%). Further, in the test on Setaria viridis, the “weeding effect … Setaria viridis” value is 5 (Level 5: growth control rate is above 85%).
As for `COc1c(C(=O)Nc2nnc(C)o2)ccc(C(F)(F)F)c1[S@@+]([O-])C(F)(F)C(F)(F)C(F)(F)F` [Compound 328], in the test on Abutilon theophrasti, the “weeding effect … Abutilon theophrasti” value was 5 (Level 5: growth control rate is above 85%). Besides, the “weeding effect … Amaranthus retroflexus” value in the test with Amaranthus retroflexus is recorded as 5 (Level 5: growth control rate is above 85%). Further, the “weeding effect … Digitaria sanguinalis” value in the test with Digitaria sanguinalis is reported as 5 (Level 5: growth control rate is above 85%). The “weeding effect … Echinochloa crusgali” value in the test on Echinochloa crusgali is 5 (Level 5: growth control rate is above 85%). The “weeding effect … Setaria viridis” value with Setaria viridis is given as 5 (Level 5: growth control rate is above 85%).
